Source: publication PMC10866072, “Design, synthesis, molecular modelling and biological evaluation of novel 6-amino-5-cyano-2-thiopyrimidine derivatives as potent anticancer agents against leukemia and apoptotic inducers” (Journal of Enzyme Inhibition and Medicinal Chemistry, 2024)

Columns and labels:
HL-60(TB) = format: cell-based; details: Homo sapiens, one dose 10^-5 M, 48 h
OVCAR-5 = format: cell-based; details: Homo sapiens, one dose 10^-5 M, 48 h
KM12 = format: cell-based; details: Homo sapiens, one dose 10^-5 M, 48 h
SK-MEL-2 = format: cell-based; details: Homo sapiens, one dose 10^-5 M, 48 h
MDA-MB-468 = format: cell-based; details: Homo sapiens, one dose 10^-5 M, 48 h
A498 = format: cell-based; details: Homo sapiens, one dose 10^-5 M, 48 h
HS 578T = format: cell-based; details: Homo sapiens; one dose 10^-5 M, 48 h; HS 578T; read-out: % growth
OVCAR-4 = format: cell-based; details: Homo sapiens, one dose 10^-5 M, 48 h
786-0 = format: cell-based; details: Homo sapiens, one dose 10^-5 M, 48 h
MOLT-4 = format: cell-based; details: Homo sapiens, one dose 10^-5 M, 48 h, read-out: % growth
U251 = format: cell-based; details: Homo sapiens, U-251, one dose 10^-5 M, 48 h
HOP-92 = format: cell-based; details: Homo sapiens, one dose 10^-5 M, 48 h
NCI/ADR-RES = format: cell-based; details: Homo sapiens, one dose 10^-5 M, 48 h
SF-295 = format: cell-based; details: Homo sapiens, one dose 10^-5 M, 48 h
HCC-2998 = format: cell-based; details: Homo sapiens, one dose 10^-5 M, 48 h
SNB-75 = format: cell-based; details: Homo sapiens, one dose 10^-5 M, 48 h
TK-10 = format: cell-based; details: Homo sapiens, one dose 10^-5 M, 48 h
NCI-H23 = format: cell-based; details: Homo sapiens, one dose 10^-5 M, 48 h, read-out: % growth
SNB-19 = format: cell-based; details: Homo sapiens, one dose 10^-5 M, 48 h, read-out: % growth
T-47D = format: cell-based; details: Homo sapiens, T47D, one dose 10^-5 M, 48 h, read-out: % growth
UACC-257 = format: cell-based; details: Homo sapiens, one dose 10^-5 M, 48 h
MDA-MB-435 = format: cell-based; details: Homo sapiens, one dose 10^-5 M, 48 h, read-out: % growth
CAKI-1 = format: cell-based; details: Homo sapiens, CAKI-1, 48 h, one dose 10^-5 M, 48 h
MALME-3M = format: cell-based; details: Homo sapiens, one dose 10^-5 M, 48 h
EKVX = format: cell-based; details: Homo sapiens, one dose 10^-5 M, 48 h
M14 = format: cell-based; details: Homo sapiens, one dose 10^-5 M, 48 h
SF-268 = format: cell-based; details: Homo sapiens, one dose 10^-5 M, 48 h, read-out: % growth
UO-31 = format: cell-based; details: Homo sapiens, UO-31, 48 h, one dose 10^-5 M, 48 h
RPMI-8226 = format: cell-based; details: Homo sapiens, one dose 10^-5 M, 48 h
IGROV1 = format: cell-based; details: Homo sapiens, IGROV-1, one dose 10^-5 M, 48 h, read-out: % growth
K-562 = format: cell-based; details: Homo sapiens, K562, one dose 10^-5 M, 48 h
LOX IMVI = format: cell-based; details: Homo sapiens, one dose 10^-5 M, 48 h, read-out: % growth
ACHN = format: cell-based; details: Homo sapiens, one dose 10^-5 M, 48 h
BT-549 = format: cell-based; details: Homo sapiens, one dose 10^-5 M, 48 h
PC-3 = format: cell-based; details: Homo sapiens, one dose 10^-5 M, 48 h
DU-145 = format: cell-based; details: Homo sapiens, one dose 10^-5 M, 48 h
MCF7 = format: cell-based; details: Homo sapiens, one dose 10^-5 M, 48 h, read-out: % growth
HCT-15 = format: cell-based; details: Homo sapiens, one dose 10^-5 M, 48 h, read-out: % growth
HT29 = format: cell-based; details: Homo sapiens, HT-29, one dose 10^-5 M, 48 h
HCT-116 = format: cell-based; details: Homo sapiens, one dose 10^-5 M, 48 h, read-out: % growth
A549/ATCC = format: cell-based; details: Homo sapiens, one dose 10^-5 M, 48 h
SR = format: cell-based; details: Homo sapiens, one dose 10^-5 M, 48 h
[1] = test system: full NCI 60 cell lines panel; details: for activity at 10 µM: Homo sapiens, 60 cell, 48 h, read-out: Mean % growth; for activity on all 60 cancer cell lines tested (in words): one dose
UACC-62 = format: cell-based; details: Homo sapiens, one dose 10^-5 M, 48 h
COLO 205 = format: cell-based; details: Homo sapiens, one dose 10^-5 M, 48 h
SK-MEL-28 = format: cell-based; details: Homo sapiens, one dose 10^-5 M, 48 h
SF-539 = format: cell-based; details: Homo sapiens, one dose 10^-5 M, 48 h
SN12C = format: cell-based, human; details: Homo sapiens, one dose 10^-5 M, 48 h
NCI-H226 = format: cell-based; details: Homo sapiens, one dose 10^-5 M, 48 h
OVCAR-8 = format: cell-based; details: Homo sapiens, one dose 10^-5 M, 48 h
HOP-62 = format: cell-based; details: Homo sapiens, one dose 10^-5 M, 48 h
CCRF-CEM = format: cell-based; details: Homo sapiens, one dose 10^-5 M, 48 h
SW-620 = format: cell-based; details: Homo sapiens, one dose 10^-5 M, 48 h
OVCAR-3 = format: cell-based; details: Homo sapiens, one dose 10^-5 M, 48 h
NCI-H460 = format: cell-based; details: Homo sapiens, one dose 10^-5 M, 48 h, read-out: % growth
MDA-MB-231/ATCC = format: cell-based; details: Homo sapiens, one dose 10^-5 M, 48 h
SK-OV-3 = format: cell-based; details: Homo sapiens, one dose 10^-5 M, 48 h
NCI-H522 = format: cell-based; details: Homo sapiens, one dose 10^-5 M, 48 h
SK-MEL-5 = format: cell-based; details: Homo sapiens, one dose 10^-5 M, 48 h, read-out: % growth

CN(C)c1ccc(-c2nc(S)nc(N)c2C(=N)NN=Cc2ccc(Br)cc2)cc1 [Compound 4e, 4-amino-N'-[(4-bromophenyl)methylene]-6-[4-(dimethylamino)phenyl]-2-mercapto pyrimidine-5-carboximidohydrazide]
% growth at 10 µM (HL-60(TB)): 91.6% | percent cell growth at 10 µM (OVCAR-5): 104% | % growth at 10 µM (KM12): 110% | % growth at 10 µM (SK-MEL-2): 107% | percent cell growth at 10 µM (MDA-MB-468): 111% | % growth at 10 µM (A498): 118% | activity at 10 µM (HS 578T): 108% | % growth at 10 µM (OVCAR-4): 102% | % growth at 10 µM (786-0): 103% | activity at 10 µM (MOLT-4): 103% | % growth at 10 µM (U251): 112% | % growth at 10 µM (HOP-92): 112% | cell growth percent at 10 µM (NCI/ADR-RES): 102% | % cell growth at 10 µM (SF-295): 104% | % growth at 10 µM (HCC-2998): 112% | % growth at 10 µM (SNB-75): 114% | % cell growth at 10 µM (TK-10): 115% | activity at 10 µM (NCI-H23): 99.3% | activity at 10 µM (SNB-19): 99.4% | activity at 10 µM (T-47D): 97.5% | percent cell growth at 10 µM (UACC-257): 109% | activity at 10 µM (MDA-MB-435): 101% | % growth at 10 µM (CAKI-1): 99.6% | % growth at 10 µM (MALME-3M): 98.6% | % cell growth at 10 µM (EKVX): 98.6% | % growth at 10 µM (M14): 98.9% | activity at 10 µM (SF-268): 101% | % cell growth at 10 µM (UO-31): 69.9% | % growth at 10 µM (RPMI-8226): 84.4% | activity at 10 µM (IGROV1): 102% | % growth at 10 µM (K-562): 99.6% | activity at 10 µM (LOX IMVI): 98.6% | % growth at 10 µM (ACHN): 105% | % cell growth at 10 µM (BT-549): 107% | percent cell growth at 10 µM (PC-3): 91% | % growth at 10 µM (DU-145): 109% | activity at 10 µM (MCF7): 93.9% | activity at 10 µM (HCT-15): 102% | % growth at 10 µM (HT29): 104% | activity at 10 µM (HCT-116): 101% | % growth at 10 µM (A549/ATCC): 108% | percent cell growth at 10 µM (SR): 91.5% | activity at 10 µM [1]: 104% | activity on all 60 cancer cell lines tested (in words) [1]: weak activity | % growth at 10 µM (UACC-62): 94% | % growth at 10 µM (COLO 205): 161% | % cell growth at 10 µM (SK-MEL-28): 104% | % growth at 10 µM (SF-539): 101% | % growth at 10 µM (SN12C): 102% | % growth at 10 µM (NCI-H226): 95.7% | % growth of cells at 10 µM (OVCAR-8): 113% | % growth at 10 µM (HOP-62): 108% | % cell growth at 10 µM (CCRF-CEM): 88.8% | % growth at 10 µM (SW-620): 107% | % growth at 10 µM (OVCAR-3): 110% | activity at 10 µM (NCI-H460): 107% | % growth at 10 µM (MDA-MB-231/ATCC): 102% | % growth at 10 µM (SK-OV-3): 124% | % growth at 10 µM (NCI-H522): 98.5% | activity at 10 µM (SK-MEL-5): 101%

CN(C)c1ccc(-c2nc(S)nc(N)c2C(=N)NN=Cc2ccc(Cl)cc2Cl)cc1 [Compound 4f, 4-amino-N'-[(2,4-dichlorophenyl)methylene]-6-[4-(dimethylamino)phenyl]-2-mercapto pyrimidine-5-carboximidohydrazide]
% growth at 10 µM (HL-60(TB)): 88.4% | percent cell growth at 10 µM (OVCAR-5): 107% | % growth at 10 µM (KM12): 77.5% | % growth at 10 µM (SK-MEL-2): 108% | percent cell growth at 10 µM (MDA-MB-468): 113% | % growth at 10 µM (A498): 114% | activity at 10 µM (HS 578T): 96.8% | % growth at 10 µM (OVCAR-4): 104% | % growth at 10 µM (786-0): 84.9% | activity at 10 µM (MOLT-4): 100% | % growth at 10 µM (U251): 93.2% | % growth at 10 µM (HOP-92): 106% | cell growth percent at 10 µM (NCI/ADR-RES): 101% | % cell growth at 10 µM (SF-295): 92.7% | % growth at 10 µM (HCC-2998): 115% | % growth at 10 µM (SNB-75): 109% | % cell growth at 10 µM (TK-10): 114% | activity at 10 µM (NCI-H23): 99.6% | activity at 10 µM (SNB-19): 90.4% | activity at 10 µM (T-47D): 104% | percent cell growth at 10 µM (UACC-257): 109% | activity at 10 µM (MDA-MB-435): 91.8% | % growth at 10 µM (CAKI-1): 102% | % growth at 10 µM (MALME-3M): 96.8% | % cell growth at 10 µM (EKVX): 102% | % growth at 10 µM (M14): 103% | activity at 10 µM (SF-268): 100% | % cell growth at 10 µM (UO-31): 70.2% | % growth at 10 µM (RPMI-8226): 80.6% | activity at 10 µM (IGROV1): 102% | % growth at 10 µM (K-562): 70.2% | activity at 10 µM (LOX IMVI): 83.3% | % growth at 10 µM (ACHN): 107% | % cell growth at 10 µM (BT-549): 119% | percent cell growth at 10 µM (PC-3): 89.8% | % growth at 10 µM (DU-145): 111% | activity at 10 µM (MCF7): 75.3% | activity at 10 µM (HCT-15): 76.7% | % growth at 10 µM (HT29): 107% | activity at 10 µM (HCT-116): 67.7% | % growth at 10 µM (A549/ATCC): 107% | percent cell growth at 10 µM (SR): 73.2% | activity at 10 µM [1]: 98.9% | activity on all 60 cancer cell lines tested (in words) [1]: weak activity | % growth at 10 µM (UACC-62): 92.3% | % growth at 10 µM (COLO 205): 166% | % cell growth at 10 µM (SK-MEL-28): 104% | % growth at 10 µM (SF-539): 81.6% | % growth at 10 µM (SN12C): 93.7% | % growth at 10 µM (NCI-H226): 95.5% | % growth of cells at 10 µM (OVCAR-8): 106% | % growth at 10 µM (HOP-62): 103% | % cell growth at 10 µM (CCRF-CEM): 83.7% | % growth at 10 µM (SW-620): 100% | % growth at 10 µM (OVCAR-3): 110% | activity at 10 µM (NCI-H460): 116% | % growth at 10 µM (MDA-MB-231/ATCC): 99.5% | % growth at 10 µM (SK-OV-3): 125% | % growth at 10 µM (NCI-H522): 97.2% | activity at 10 µM (SK-MEL-5): 99.3%
